Measurements from publication PMC11124362, “Metabolism, Disposition, Excretion, and Potential Transporter Inhibition of 7–16, an Improving 5-HT2A Receptor Antagonist and Inverse Agonist for Parkinson’s Disease” (Molecules, 2024).
pIC50: −log10 of the molar value.

Experiments:
[1] = Excretion and metabolite identification in urine and feces of intact rats; format: in vivo, Sprague-Dawley rats; details: intact rats, 0–168 h, oral 3 mg/100 µCi/kg
Protocol: In the urine and feces excretion experiment, six rats (3 females and 3 males) were administered a single oral dose of [^14C]7–16 at 3 mg/100 µCi/kg. Urine, feces and cage washing/cleaning solution samples were collected from 0 to 168 h following drug administration at the following time intervals: 0–8, 8–24 h (0–24 h for feces), 24–48, 48–72, 72–96, 96–120, 120–144, and 144–168 h. In the biliary excretion experiment, 8 rats using a bile duct cannula (BDC) (4 females and 4 males) were administered a single oral dose of [^14C]7–16 at 3 mg/100 µCi/kg. Bile, urine, feces, and cage washing solution were collected from before and 0–72 h after oral administration at the following time intervals: 0–4, 4–8 (urine 0–8), 8–24 (feces 0–24), 24–48, and 48–72 h. All samples were collected and refrigerated at −20 °C until determination of the radioactive concentrations by liquid scintillation counter (Perkin Elmer Corporation, Waltham, MA, USA). Urine, feces, and bile samples at each time period were mixed by equal percentages of either volume or weight. After the mixed samples were treated, the radio-profiles and metabolite identification in the bile, urine, and feces samples were carried out by LC-RAM and UPLC-Q Exactive HRMS, and the TRA% of each metabolite in plasma and the percentage of dose (dose%) of each compound in urine, feces, and bile samples were calculated.

OATP1B1 = target: T1, OATP1B1 (Homo sapiens, UniProt Q9Y6L6)
T1 sequence (Q9Y6L6 1-691): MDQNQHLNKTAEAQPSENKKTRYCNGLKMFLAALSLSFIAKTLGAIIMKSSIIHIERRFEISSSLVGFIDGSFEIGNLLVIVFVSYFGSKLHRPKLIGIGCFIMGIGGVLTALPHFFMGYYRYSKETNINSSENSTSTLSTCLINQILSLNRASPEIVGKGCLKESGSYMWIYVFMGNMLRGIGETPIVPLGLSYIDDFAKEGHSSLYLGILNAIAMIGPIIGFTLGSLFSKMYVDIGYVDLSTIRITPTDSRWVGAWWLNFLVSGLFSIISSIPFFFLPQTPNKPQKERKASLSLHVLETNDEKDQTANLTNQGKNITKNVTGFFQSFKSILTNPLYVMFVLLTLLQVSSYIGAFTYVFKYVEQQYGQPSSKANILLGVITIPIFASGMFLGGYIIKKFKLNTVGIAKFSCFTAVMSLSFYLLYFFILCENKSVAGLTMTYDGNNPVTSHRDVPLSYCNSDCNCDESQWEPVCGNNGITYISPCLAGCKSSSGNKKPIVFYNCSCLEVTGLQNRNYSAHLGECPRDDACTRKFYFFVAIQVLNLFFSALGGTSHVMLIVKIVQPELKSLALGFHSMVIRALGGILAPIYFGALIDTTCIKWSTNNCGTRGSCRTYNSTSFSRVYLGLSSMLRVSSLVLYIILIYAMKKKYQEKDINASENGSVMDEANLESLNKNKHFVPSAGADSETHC

5-HT2A receptors = tested on: 5-HT2A receptors; parameters: method as in PMID 35279606; details: head twitches test in rats; cited from earlier work
CYP2B6 = assay: Metabolic phenotype by rhCYP isozymes, CYP2B6; format: in vitro ADME, human; details: 7–16 1 µM
Protocol: Based on the result of metabolite identification, two metabolites were selected as targets for metabolic phenotyping analysis. Seven CYP isozymes (CYP1A2, CYP2B6, CYP2C8, CYP2C9, CYP2C19, CYP2D6, and CYP3A4) were investigated using the rhCYP isozymes method. In brief, 7–16 (1 µΜ) was incubated with each rhCYP isozyme ([…]) in 100 mM sodium phosphate buffer (pH 7.4) containing 3 mM magnesium chloride. After 10 min of preincubation at 37 °C, the reactions were initiated by adding NADPH (1 mM) and then incubated at 37 °C in a shaking water bath for 0, 5, 15, and 30 min. The specific substrates of each rhCYP isozyme were incubated as the above method to confirm the activity of the incubation system. The samples were prepared in triplicates. The reactions were terminated by adding three times the volume of ice-cold acetonitrile (600 µL) and stored at −20 °C until analysis. After pre-treatment, the samples were determined by the LC–MS/MS (Shimadzu Exion-Triple Quad 4500) method. The relative contribution rate of each isozyme to the metabolism of 7–16 was evaluated in HLMs using the following formula: Contributionx% = Vx × Abundancex (pmol/mg protein)/Σ(Vi × Abundancei). Vx (µL/min/pmol) is the production rate of metabolites for each rhCYP isozyme.

[2] = Metabolite identification in dog liver microsomes; format: in vitro ADME; details: 7–16 10 µM, liver microsomes 1 mg/mL, NADPH, 37 °C, 60 min
Protocol: In accordance with our previous methods, 7–16 (10 µM) was incubated with mouse, rat, dog, monkey, and human liver microsome proteins (1 mg/mL) in 100 mM sodium phosphate buffer (pH 7.4) containing 10 mM magnesium chloride and 2 mM NADPH at 37 °C for 60 min. All samples were prepared in duplicates. The reactions were terminated by adding three times the volume of ice-cold acetonitrile (600 µL) and stored at −20 °C until analysis. Control samples without NADPH and 0-time point samples were included. As a positive control, testosterone (10 µM), which was metabolized to produce the hydroxylation metabolite, was used as a substrate to confirm the activity of the incubation system.
After pre-treatments, the samples were analyzed by an Acquity UPLC system coupled with a diode array detector (Waters Corporation, Milford, MA, USA) and Q Exactive HRMS (Thermo Electron Corporation, Waltham, MA, USA) (UPLC–UV-Q Exactive HRMS). Samples were separated on an Agilent XDB C18 column (150 × 2.1 mm i.d. 3.5 μm, Agilent Corporation, Santa Clara, CA, USA) at 40 °C by gradient elution with water and acetonitrile containing 0.1% formic acid. The flow rate was 0.40 mL/min. The ultraviolet (UV) detection wavelength was 286 nm. Q Exactive HRMS were operated at positive ion mode (3.5 kV) using a heating electrospray ionization source. Mass calibration was required to be performed before conducting experiments so as to achieve the best mass accuracy and mass calibration should be performed every five days. The metabolites were detected by full MS/dd-MS^2 analysis from m/z 100 to m/z 1000. The resolution of the first-class scan and second-class scan was 70,000 and 17,500, respectively. Thermo Compound Discover software was used to identify expected and unknown metabolites, and we finally proposed the 7–16 metabolic pathways based on the deduced metabolites and relevant drug biotransformation knowledge.

With `CN1CCC(N(Cc2ccc(F)cn2)C(=O)NCc2ccc(OCC(F)(F)F)cc2)CC1` [7–16, 3-(4-(2,2,2-trifluoroethoxy)benzyl)-1-((5-fluoropyridin-2-yl)methyl)-1-(1-methylpiperidin-4-yl) urea] the “recovery of radioactivity in cage rinse/wash, percent of dose” value [1] was 4.06%, the “recovery of radioactivity in feces, percent of dose” value [1] was 55.0% and the “recovery of radioactivity in urine, percent of dose” value [1] was 39.9%. The “total recovery of radioactivity, percent of administered dose” value ([1]; mean of both sexes) was 98.9%, the pIC50 (OATP1B1) was less than 4.00 and the “potency for blocking 5-HT2A receptors relative to pimavanserin” value (5-HT2A receptors) was “at least four times more potent than pimavanserin”. The “relative contribution of CYP2B6 to metabolism” value (CYP2B6) was “little or no contribution” and the “Relative Abundance, UV Area% Dog” value [2] was 77.2%.
